In paper PMC4357444, “Accumulation of Squalene in a Microalga Chlamydomonas reinhardtii by Genetic Modification of Squalene Synthase and Squalene Epoxidase Genes” (PLoS ONE, 2015):

Target: T1, CrSQS (Chlamydomonas reinhardtii, UniProt A0A2K3DXC5)
T1 construct: gene CHLRE_03g175250v5; Met-1 to Asp-397, C-terminal 64 residues (transmembrane region) removed; C-terminal 6xHis (pET-21b), E. coli BL21(DE3), TALON purified, 46 kDa
Test: radiolabel TLC assay of squalene formation
Assay type: biochemical
Conditions: 25 uM (1-14C) FPP, 2.5 mM NADPH, 5 mM MgCl2 or 2 mM MnCl2, pH 7.4, 30 °C; labelled compound; 2.5 mM NADPH (with glucose-6-phosphate dehydrogenase regeneration) against no NADPH

T1 sequence (A0A2K3DXC5 entry or part of it): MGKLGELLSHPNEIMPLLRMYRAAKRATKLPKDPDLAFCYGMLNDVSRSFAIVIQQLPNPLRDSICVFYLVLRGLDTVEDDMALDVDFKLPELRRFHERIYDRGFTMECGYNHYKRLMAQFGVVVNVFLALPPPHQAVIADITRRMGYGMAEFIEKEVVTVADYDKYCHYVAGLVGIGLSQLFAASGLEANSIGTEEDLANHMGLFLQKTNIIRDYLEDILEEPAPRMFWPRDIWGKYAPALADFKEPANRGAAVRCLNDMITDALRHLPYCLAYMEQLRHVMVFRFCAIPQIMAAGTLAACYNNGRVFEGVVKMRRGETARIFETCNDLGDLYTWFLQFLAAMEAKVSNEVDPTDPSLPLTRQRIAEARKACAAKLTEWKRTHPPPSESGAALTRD

## NC(=O)C1=CN([C@@H]2O[C@H](COP(=O)(O)OP(=O)(O)OC[C@H]3O[C@@H](n4cnc5c(N)ncnc54)[C@H](OP(=O)(O)O)[C@@H]3O)[C@@H](O)[C@H]2O)C=CC1 [NADPH]
  radiolabel TLC assay of squalene formation: When NADPH was removed, radiolabeled squalene was not detected in any sample
